Measured values: PubChem BioAssay (NCI)
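Each compound was tested at five concentrations against cells in 96-well plates for 48 hours. GI50 = concentration required for 50% inhibition of growth. The concentration for full growth arrest is given as TGI.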

Columns and labels:
Experiment in all cases: NCI-60 cell line screen, 48 h
BT-549 breast = system: BT-549 breast
CCRF-CEM leukemia = system: CCRF-CEM leukemia
NCI-H23 lung = system: NCI-H23 lung
OVCAR-5 ovarian = system: OVCAR-5 ovarian
SF-268 CNS = system: SF-268 CNS
SF-539 CNS = system: SF-539 CNS
SK-MEL-28 melanoma = system: SK-MEL-28 melanoma
SK-OV-3 ovarian = system: SK-OV-3 ovarian
T-47D breast = system: T-47D breast
TK-10 renal = system: TK-10 renal

SMILES: COCCOCCOCCOCCOC(=O)OC[n+]1ccc(NC(=NCCCCCCOc2ccc(Cl)cc2)NC#N)cc1
- GI50 (BT-549 breast): 5.71 µM
- TGI (BT-549 breast): 20.5 µM
- GI50 (CCRF-CEM leukemia): < 0.01 µM
- TGI (CCRF-CEM leukemia): 15 µM
- GI50 (NCI-H23 lung): 4.23 µM
- TGI (NCI-H23 lung): 23.1 µM
- GI50 (OVCAR-5 ovarian): 3.98 µM
- TGI (OVCAR-5 ovarian): 22 µM
- GI50 (SF-268 CNS): 11.9 µM
- TGI (SF-268 CNS): 26.9 µM
- GI50 (SF-539 CNS): < 0.01 µM
- TGI (SF-539 CNS): 13.7 µM
- GI50 (SK-MEL-28 melanoma): 11.1 µM
- TGI (SK-MEL-28 melanoma): 23.5 µM
- GI50 (SK-OV-3 ovarian): 11.3 µM
- TGI (SK-OV-3 ovarian): 23.6 µM
- GI50 (T-47D breast): 0.112 µM
- TGI (T-47D breast): 17.5 µM
- GI50 (TK-10 renal): 13.2 µM
- TGI (TK-10 renal): 26.4 µM
